Laboratory results taken from patent US11027021B2, “Combinations of PBD-based antibody drug conjugates with Bcl-2 inhibitors” (Seagen Inc., priority 2016, dated 2021).

Assays:
MOLM-13 cells = assay: MOLM-13 subcutaneous xenograft survival experiment; assay type: in vivo; conditions: ABT-199 alone 100 mg/kg daily by oral gavage for 14 days; MOLM-13 xenograft, SCID mice
Method: (§1) Tumor growth was monitored throughout the course of the study with bilateral vernier caliper measurements, and mean tumor volumes were calculated using the equation (0.5×[length×width^2]). […] Mice with advanced tumor burden were sacrificed upon reaching tumor volumes of greater than 400 mm^3 or showing symptoms of hind limb paralysis, cranial swelling, and/or moribundity.

RL cells = assay: RL subcutaneous xenograft survival experiment; assay type: in vivo; conditions: ABT-199 alone 100 mg/kg daily by oral gavage for 14 days, SCID mice
Method: as §1

Q: How did the “rate of survival by day 20” value (MOLM-13 cells) turn out when `CC1(C)CCC(CN2CCN(c3ccc(C(=O)NS(=O)(=O)c4ccc(NCC5CCOCC5)c([N+](=O)[O-])c4)c(Oc4cnc5[nH]ccc5c4)c3)CC2)=C(c2ccc(Cl)cc2)C1` [ABT-199, 2-(1H-pyrrolo[2,3-b]pyridin-5-yloxy)-4-(4-((2-(4-chlorophenyl)-4,4-dimethylcyclohex-1-enyl)methyl)piperazin-1-yl)-N-(3-nitro-4-(((tetrahydro-2H-pyran-4-yl)methyl)amino)phenylsulfonyl)benzamide] was run?
A: 0%

Q: What about the “rate of survival by day 30” value (RL cells) of the same compound?
A: 0%
